According to patent US10624871B2, “Bismuth(III) compounds and methods thereof” (priority 2016, dated 2020):

Tests used:
[1] = tested on: E. coli (NDM-1+); assay: Microdilution MIC and MBC assay, checkerboard FICI; format: cell-based; conditions: for MBC of MER with Bi(III) compound / MIC of MER with Bi(III) compound: Bi(III) compound at 32 μg mL^−1, E. coli (NDM-1+); for FIC Index: MER with Bi(III) compound, E. coli (NDM-1+)
[2] = Solubility of the bismuth complexes (Table 1); conditions: solvent named, or insoluble
[3] = target: NDM-1 (Klebsiella pneumoniae, UniProt C7C422); assay: IC50 enzyme inhibition assay, MER hydrolysis; format: biochemical; conditions: Zn2-NDM-1 50 nM, 1 h preincubation at 25° C., 100 μM MER
Text: (§1) […]. The initial rate were extracted and calculated from each reaction curves.

[4] = target: VIM-2 (Escherichia coli, UniProt Q5U7L7); assay: IC50 enzyme inhibition assay, MER hydrolysis; format: biochemical; conditions: Zn2-VIM-2, 1 h preincubation at 25° C., 100 μM MER
Text: as §1

[5] = tested on: K. pneumonia (NDM-1+); assay: Microdilution MIC and MBC assay, FICI; format: cell-based; conditions: for MBC of MER with Bi(III) compound / MIC of MER with Bi(III) compound: Bi(III) compound at 32 μg mL^−1, K. pneumonia (NDM-1+); for FIC Index: MER with Bi(III) compound, K. pneumonia (NDM-1+)
[6] = tested on: C. freundii (NDM-1+); assay: Microdilution MIC and MBC assay, FICI; format: cell-based
[7] = tested on: E. coli (VIM-2+); assay: Microdilution MIC and MBC assay, FICI; format: cell-based
[8] = tested on: E. coli (IMP-4+); assay: Microdilution MIC and MBC assay, FICI; format: cell-based
[9] = Bi(III) compound at 32 μg mL^−1, C. feudii (NDM-1+)
[10] = Bi(III) compound at 32 μg mL−1, E. coli (VIM-2+)
[11] = Bi(III) compound at 32 μg mL−1, E. coli (IMP-4+)

NDM-1, sequence (C7C422 whole entry, looked up): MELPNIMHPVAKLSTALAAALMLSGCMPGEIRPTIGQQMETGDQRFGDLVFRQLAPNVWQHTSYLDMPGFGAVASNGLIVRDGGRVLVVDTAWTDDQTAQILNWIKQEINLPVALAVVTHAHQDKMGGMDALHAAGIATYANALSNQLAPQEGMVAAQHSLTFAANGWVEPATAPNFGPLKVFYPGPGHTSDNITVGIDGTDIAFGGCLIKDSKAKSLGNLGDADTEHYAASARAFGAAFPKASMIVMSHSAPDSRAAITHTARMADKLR

| Molecule | MBC of MER with Bi(III) compound [1] [µg/mL] | MIC of MER with Bi(III) compound [1] [µg/mL] | FIC Index [1] | Solubility [2] | also measured |
| --- | --- | --- | --- | --- | --- |
| O=[N+]([O-])[O-].O=[N+]([O-])[O-].[Bi+3].c1ccc(-c2ccccn2)nc1.c1ccc(-c2ccccn2)nc1 [Complex 16] | 8 | 2 |  |  |  |
| bismuth subgallate [Complex 14] | 8 | 4 | 0.375 | Insoluble |  |
| CNC(=C[N+](=O)[O-])NCCSCc1ccc(CN(C)C)o1.O=C([O-])CC(O)(CC(=O)[O-])C(=O)[O-].[Bi+3] [RBC, ranitidine bismuth citrate] | 4 | 2 |  |  |  |
| NCC(=O)[O-].NCC(=O)[O-].NCC(=O)[O-].[Bi+3] [Complex 18] | 16 | 8 |  |  |  |
| O=[N+]([O-])[O][Bi]([O][N+](=O)[O-])[O][N+](=O)[O-] [Bi(NO3)3] | 4 | 2 | 0.266 |  | IC50 [3]: 1890 ± 230 nM; IC50 [4]: 2450 ± 630 nM; MBC of MER with Bi(III) compound [5]: 1 µg/mL; MIC of MER with Bi(III) compound [5]: 1 µg/mL; FIC Index [5]: 0.125; MBC of MER with Bi(III) compound [6, 9]: 4 µg/mL; MIC of MER with Bi(III) compound [6, 9]: 2 µg/mL; FIC Index ([6]; MER with Bi(III) compound, C. freundii (NDM-1+)): 0.375; MBC of MER with Bi(III) compound [7, 10]: 2 µg/mL; MIC of MER with Bi(III) compound [7, 10]: 1 µg/mL; FIC Index ([7]; MER with Bi(III) compound, E. coli (VIM-2+)): 0.063; MBC of MER with Bi(III) compound [8, 11]: 8 µg/mL; MIC of MER with Bi(III) compound [8, 11]: 4 µg/mL; FIC Index ([8]; MER with Bi(III) compound, E. coli (IMP-4+)): 0.313 |
| O=C(O)c1ccccc1[S-].O=C([O-])c1ccccc1[S-].[Bi+3] [Complex 7] | 2 | 1 | 0.250 | DMSO |  |
| O.O.O=C([O-])CN(CC(=O)[O-])CC(=O)[O-].[Bi+3] [Complex 11] | 8 | 4 |  |  |  |
| [Bi+3].[O-]c1c([O-])c(Br)c(Br)c(Br)c1Br.[O-]c1c([O-])c(Br)c(Br)c(Br)c1Br [Complex 13] | 2 | 1 | 0.250 | DMSO |  |
| C1=CC2=C(c3ccccc3)c3ccc4[n]3[Bi+][n]3c(ccc3=C(c3ccccc3)C3=NC(=C4c4ccccc4)C=C3)=C(c3ccccc3)C1=N2 [Complex 1] | 8 | 4 | 0.266 |  | MBC of MER with Bi(III) compound [5]: 16 µg/mL; MIC of MER with Bi(III) compound [5]: 4 µg/mL; FIC Index [5]: 0.375 |
